Source: patent US7138361B2, “Herbicidal heterocycles” (E. I. du Pont de Nemours and Company, priority 2000, dated 2006)

Key:
Type in all cases: in vivo
rice (Oryza saliva) [1] = test: Test B preemergence
How it was run: (§1)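 Preemergence: seeds planted and treated with test chemicals in non-phytotoxic solvent with surfactant; postemergence on plants 2–18 cm (1- to 4-leaf stage). Kept in greenhouse 13–15 days, then visually rated against controls on a 0 (no effect) to 100 (complete control) scale.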

[2] = system: morning glory (Ipomoea hederacea); test: Test B preemergence
How it was run: as §1

[3] = system: cocklebur (Xanthium strumarium); test: Test B preemergence
How it was run: as §1

[4] = system: crabgrass (Digitaria sanguinalis); test: Test B preemergence
How it was run: as §1

[5] = system: giant foxtail (Setaria faberii); test: Test B preemergence
How it was run: as §1

[6] = system: Surinam grass (Brachiaria decumbens); test: Test B preemergence
How it was run: as §1

[7] = system: pigweed (Amaranthus retroflexus); test: Test B preemergence
How it was run: as §1

corn (Zea mays) [8] = test: Test B preemergence
How it was run: as §1

[9] = system: barnyardgrass (Echinochloa crus-galli); test: Test B preemergence
How it was run: as §1

[10] = system: velvetleaf (Abutilon theophrasti); test: Test B preemergence
How it was run: as §1

rice (Oryza saliva) [11] = test: Test B flooded paddy test; conditions: Rate 1000 g/ha, scale of 0 to 100 where 0 is no effect and 100 is complete control, visually evaluated after 13 to 15 days
Method: (§2) At the same time, plants selected from these crop and weed species and also blackgrass (Alopecurus myosuroides), wheat (Triticum aestivum) and wild oat (Avena fatua) were treated with postemergence applications of test chemicals formulated in the same manner. Plants ranged in height from 2 to 18 cm (1- to 4-leaf stage) for postemergence treatments. Plant species in the flooded paddy test consisted of rice (Oryza saliva), smallflower flatsedge (Cyperus difformis), duck salad (Heteranthera limosa) and barnyardgrass (Echinochloa crus-galli) grown to the 2-leaf stage for testing. Treated plants and controls were maintained in a greenhouse for 13 to 15 days, after which time all species were compared to controls and visually evaluated. Plant response ratings, summarized in Table B, are based on a scale of 0 to 100 where 0 is no effect and 100 is complete control. A dash (-) response means no test result.

[12] = system: barnyardgrass (Echinochloa crus-galli); test: Test B flooded paddy test; conditions: Rate 1000 g/ha, scale of 0 to 100 where 0 is no effect and 100 is complete control, visually evaluated after 13 to 15 days
Method: as §2

[13] = system: duck salad (Heteranthera limosa); test: Test B flooded paddy test; conditions: Rate 1000 g/ha, scale of 0 to 100 where 0 is no effect and 100 is complete control, visually evaluated after 13 to 15 days
Method: as §2

[14] = system: smallflower flatsedge (Cyperus difformis); test: Test B flooded paddy test; conditions: Rate 1000 g/ha, scale of 0 to 100 where 0 is no effect and 100 is complete control, visually evaluated after 13 to 15 days
Method: as §2

[15] = system: morning glory (Ipomoea hederacea); test: Test B postemergence; conditions: 13 to 15 days
How it was run: as §1

[16] = system: wheat (Triticum aestivum); test: Test B postemergence; conditions: 13 to 15 days
How it was run: as §1

[17] = system: lambsquarters (Chenopodium album); test: Test B postemergence; conditions: 13 to 15 days
How it was run: as §1

[18] = system: cocklebur (Xanthium strumarium); test: Test B postemergence; conditions: 13 to 15 days
How it was run: as §1

wild oat (Avena fatua) = test: Test B postemergence; conditions: 13 to 15 days
How it was run: as §1

[19] = system: crabgrass (Digitaria sanguinalis); test: Test B postemergence; conditions: 13 to 15 days
How it was run: as §1

[20] = system: giant foxtail (Setaria faberii); test: Test B postemergence; conditions: 13 to 15 days
How it was run: as §1

[21] = system: Surinam grass (Brachiaria decumbens); test: Test B postemergence; conditions: 13 to 15 days
How it was run: as §1

[22] = system: pigweed (Amaranthus retroflexus); test: Test B postemergence; conditions: 13 to 15 days
How it was run: as §1

corn (Zea mays) [23] = test: Test B postemergence; conditions: 13 to 15 days
How it was run: as §1

[24] = system: blackgrass (Alopecurus myosuroides); test: Test B postemergence; conditions: 13 to 15 days
How it was run: as §1

[25] = system: barnyardgrass (Echinochloa crus-galli); test: Test B postemergence; conditions: 13 to 15 days
How it was run: as §1

[26] = system: velvetleaf (Abutilon theophrasti); test: Test B postemergence; conditions: 13 to 15 days
How it was run: as §1

[27] = Preemergence, Rate 500 g/ha, scale 0 to 100, 0 no effect, 100 complete control
[28] = preemergence, Rate 125 g/ha, scale of 0 to 100 where 0 is no effect and 100 is complete control, 13 to 15 days
[29] = Rate 125 g/ha, scale 0 (no effect) to 100 (complete control)
[30] = Rate 500 g/ha, scale 0 to 100, 0 is no effect, 100 is complete control

CCOc1ccn(C2CCN(c3cccc(C(F)(F)F)c3)C2=O)n1 (centres unmarked) [Compound 61]
Plant response rating, Rice (rice (Oryza saliva) [1]; [27]): 0
Plant response rating, Rice (rice (Oryza saliva) [1]; [28]): 0
Plant response rating, Morningglory [2, 27]: 0
Plant response rating, Morningglory [2, 28]: 0
Plant response rating, Cocklebur [3, 27]: 0
Plant response rating, Cocklebur [3, 28]: 0
Plant response rating, Crabgrass [4, 27]: 0
Plant response rating, Crabgrass [4, 28]: 0
Plant response rating, Foxtail, Giant [5, 27]: 0
Plant response rating, Foxtail, Giant [5, 28]: 0
Plant response rating, Surinam grass [6, 27]: 0
Plant response rating, Surinam grass [6, 28]: 0
Plant response rating, Pigweed [7, 27]: 0
Plant response rating, Pigweed [7, 28]: 0
Plant response rating, Corn (corn (Zea mays) [8]; [27]): 0
Plant response rating, Corn (corn (Zea mays) [8]; [28]): 0
Plant response rating, Barnyardgrass [9, 27]: 0
Plant response rating, Barnyardgrass [9, 28]: 0
Plant response rating, Velvetleaf [10, 27]: 0
Plant response rating, Velvetleaf [10, 28]: 0
Plant response rating, Rice (rice (Oryza saliva) [11]): 0
Plant response rating, Barnyardgrass [12]: 0
Plant response rating, Ducksalad [13]: 30
Plant response rating, Flatsedge [14]: 20
Plant response rating, Morningglory [15, 29]: 0
Plant response rating, Morningglory [15, 30]: 0
Plant response rating, Wheat [16, 29]: 0
Plant response rating, Wheat [16, 30]: 0
Plant response rating, Lambsquarters [17, 29]: 0
Plant response rating, Lambsquarters [17, 30]: 0
Plant response rating, Cocklebur [18, 29]: 0
Plant response rating, Cocklebur [18, 30]: 0
Plant response rating, Wild Oat (wild oat (Avena fatua); [29]): 0
Plant response rating, Wild Oat (wild oat (Avena fatua); [30]): 0
Plant response rating, Crabgrass [19, 29]: 0
Plant response rating, Crabgrass [19, 30]: 0
Plant response rating, Foxtail, Giant [20, 29]: 0
Plant response rating, Foxtail, Giant [20, 30]: 0
Plant response rating, Surinam grass [21, 29]: 0
Plant response rating, Surinam grass [21, 30]: 0
Plant response rating, Pigweed [22, 29]: 0
Plant response rating, Pigweed [22, 30]: 0
Plant response rating, Corn (corn (Zea mays) [23]; [29]): 0
Plant response rating, Corn (corn (Zea mays) [23]; [30]): 0
Plant response rating, Blackgrass [24, 29]: 0
Plant response rating, Blackgrass [24, 30]: 0
Plant response rating, Barnyardgrass [25, 29]: 0
Plant response rating, Barnyardgrass [25, 30]: 0
Plant response rating, Velvetleaf [26, 29]: 0
Plant response rating, Velvetleaf [26, 30]: 0
